Laboratory results published in patent US20090281049A1, “New use of ginsenoside compound-k in manufacturing medicaments” (priority 2006, published 2009).

Columns and labels:
[1] = test system: Collagen Type II (CII) induced arthritis in rats; test: Preventive effect on Collagen Type II (CII) induced arthritis in rats; assay type: in vivo, Rat, SD strain
Procedure: Inflammation-induced agent: Collagen Type II was dissolved in 0.1 mol/L acetic acid to make final concentration be 2 mg/ml collagen solution, and held in 4° C. overnight. The Collagen Type II solution was added to cold Freund's Adjuvant Incomplete by drops (Collagen Type II: Freund's Adjuvant Incomplete=1:1) on the next day, emulsified completely (Type II Collagen solution: Freund's Adjuvant Incomplete=1:1), and the final concentration of Collagen Type II was 1 mg/ml. The Collagen Type II emulsion was reserved in a refrigerator at 4° C.
Immune method: Each rat was immunized by being injected subcutaneously at 5 points on the back with 0.1 ml emulsion in each point, total of […] (contained 0.5 mg Collagen Type II), and immunized again in the same way 7 days later. An emulsion of 0.1 mol/L acetic acid and Freund's Adjuvant Incomplete was injected in control group. The swell values of the arthrosis in right hind ankle and foot were measured respectively by using a hydroplethismometer before injection and 20 days after immunization.
The Collagen Type II solution, which had been dissolved in acetic acid and held overnight, was adjusted to concentration 2 mg/ml, then added by drops slowly to Freund's Adjuvant Incomplete in proportion of 1:1. After the mixture was emulsified completely, each rat was injected subcutaneously at 5 points on the back with 0.1 ml emulsion in each point (total 0.5 ml in each rat, containing 0.5 mg Collagen Type II) for the first immunization. 7 days later, the second immunization was repeated in the same way.
The animals were divided into large dose group: Ginsenoside Compound-K, 10 mg/kg, iv, medium dose group: Ginsenoside Compound-K, 5 mg/kg, iv, small dose group: Ginsenoside Compound-K, 2.5 mg/kg, iv, Tripterygium Wilfordii Hook group: 1.5 mg/kg, po-, Enbrel group: 9 mg/kg, sc and blank control group: physiological saline 10 mg/kg, iv. The animals of administration groups were administered at the first immunization and stopped administering 8 days after the first immunization. The swell value of arthrosis in ankle and foot was measured by using hydroplethismometer before immunization and on day 20, 22, 24, 27 and 29 after the first immunization respectively. Swell rate and inhibition rate were calculated by the same method as the foregoing. Differences among groups were compared with t test. When the treatment finished, the arthroses in ankle and foot were taken for pathological examination.

[2] = test system: Adjuvant Arthritis in rats; test: Treatment effect on adjuvant induced adjuvant arthritis in rats; assay type: in vivo, Rat, SD strain
Procedure: Freund's Adjuvant Complete, purchased from Sigma Company, was injected into the plantar surface of the right hind paw by 0.1 ml in order to induce inflammation in rats.
Animals were firstly divided into large dose group: 10 mg/kg, iv, medium dose group: 5 mg/kg, iv, small dose group: 2.5 mg/kg, iv, Indomethacin group: 1 mg/kg, po, Tripterygium Wilfordii Hook group: 1.5 mg/kg, po. and blank control group: physiological saline 10 mg/kg, iv. The volume of the right hind paw of the rats was measured by using hydroplethismometer before inflammation induced. Then 0.1 ml Freund's Adjuvant Complete was injected into the plantar surface of the right hind paw in order to induce inflammation in rats. 20 days after inflammation induced, the rats were grouped by the foregoing division method and to be administered for 8 days. The volume of paw was measured in regular intervals. Swell rate and inhibition rate were calculated with the same method as the foregoing. Differences among groups were compared with t test.

For CC(C)=CCC[C@](C)(O[C@@H]1O[C@H](CO)[C@@H](O)[C@H](O)[C@H]1O)[C@H]1CC[C@]2(C)[C@@H]1[C@H](O)C[C@@H]1[C@@]3(C)CC[C@H](O)C(C)(C)[C@@H]3CC[C@]12C [Ginsenoside Compound-K, ginsenoside Compound-K], the swell value ([1]; 2.5 mg/kg iv, 0 day) was 1.09 ± 0.04 mL, the inhibition rate ([1]; 2.5 mg/kg iv, 20 day) was <23.26> % and the swell rate ([1]; 2.5 mg/kg iv, 20 day) was “(40.29 ± 18.03) %”. The swell value ([1]; 2.5 mg/kg iv, 20 day) was 1.39 ± 0.24 mL, the inhibition rate ([1]; 2.5 mg/kg iv, 22 day) was <24.39> % and the swell rate ([1]; 2.5 mg/kg iv, 22 day) was “(38.98 ± 18.96) %”. For the same compound, the swell value ([1]; 2.5 mg/kg iv, 22 day) was 1.38 ± 0.24 mL, the inhibition rate ([1]; 2.5 mg/kg iv, 24 day) was <25.92> % and the swell rate ([1]; 2.5 mg/kg iv, 24 day) was “(38.92 ± 15.07) %”. The swell value ([1]; 2.5 mg/kg iv, 24 day) was 1.37 ± 0.24 mL, the inhibition rate ([1]; 2.5 mg/kg iv, 27 day) was <27.08> % and the swell rate ([1]; 2.5 mg/kg iv, 27 day) was “(36.93 ± 13.02) %”. The swell value ([1]; 2.5 mg/kg iv, 27 day) was 1.35 ± 0.22 mL, the inhibition rate ([1]; 2.5 mg/kg iv, 29 day) was <27.60> % and the swell rate ([1]; 2.5 mg/kg iv, 29 day) was “(31.75 ± 13.70) %”. The swell value ([1]; 2.5 mg/kg iv, 29 day) was 1.33 ± 0.17 mL, the swell value ([1]; 5 mg/kg iv, 0 day) was 1.11 ± 0.06 mL and the inhibition rate ([1]; 5 mg/kg iv, 20 day) was <29.01> %. For the same compound, the swell rate ([1]; 5 mg/kg iv, 20 day) was “(37.27 ± 15.30) %”, the swell value ([1]; 5 mg/kg iv, 20 day) was 1.43 ± 0.23 mL and the inhibition rate ([1]; 5 mg/kg iv, 22 day) was <32.11> %. For the same compound, the swell rate ([1]; 5 mg/kg iv, 22 day) was “(35.00 ± 15.12) %”, the swell value ([1]; 5 mg/kg iv, 22 day) was 1.41 ± 0.22 mL and the inhibition rate ([1]; 5 mg/kg iv, 24 day) was <31.56> %. For the same compound, the swell rate ([1]; 5 mg/kg iv, 24 day) was “(35.95 ± 11.21) %”, the swell value ([1]; 5 mg/kg iv, 24 day) was 1.45 ± 0.17 mL and the inhibition rate ([1]; 5 mg/kg iv, 27 day) was <31.57> %. The swell rate ([1]; 5 mg/kg iv, 27 day) was “(34.66 ± 13.01) %”, the swell value ([1]; 5 mg/kg iv, 27 day) was 1.41 ± 0.23 mL and the inhibition rate ([1]; 5 mg/kg iv, 29 day) was <29.04> %. The swell rate ([1]; 5 mg/kg iv, 29 day) was “(31.12 ± 13.81) %”, the swell value ([1]; 5 mg/kg iv, 29 day) was 1.39 ± 0.18 mL and the swell value ([1]; 10 mg/kg iv, 0 day) was 1.08 ± 0.07 mL. The inhibition rate ([1]; 10 mg/kg iv, 20 day) was <32.97> %, the swell rate ([1]; 10 mg/kg iv, 20 day) was “(35.19 ± 19.75) %” and the swell value ([1]; 10 mg/kg iv, 20 day) was 1.37 ± 0.26 mL. For the same compound, the inhibition rate ([1]; 10 mg/kg iv, 22 day) was <47.51> %, the swell rate ([1]; 10 mg/kg iv, 22 day) was “(27.06 ± 19.03) %” and the swell value ([1]; 10 mg/kg iv, 22 day) was 1.30 ± 0.23 mL. The inhibition rate ([1]; 10 mg/kg iv, 24 day) was <48.29> %, the swell rate ([1]; 10 mg/kg iv, 24 day) was “(27.16 ± 16.39) %” and the swell value ([1]; 10 mg/kg iv, 24 day) was 1.31 ± 0.21 mL. For the same compound, the inhibition rate ([1]; 10 mg/kg iv, 27 day) was <44.61> %, the swell rate ([1]; 10 mg/kg iv, 27 day) was “(28.05 ± 14.52) %” and the swell value ([1]; 10 mg/kg iv, 27 day) was 1.32 ± 0.19 mL. The inhibition rate ([1]; 10 mg/kg iv, 29 day) was <34.19> %, the swell rate ([1]; 10 mg/kg iv, 29 day) was “(28.86 ± 19.06) %” and the swell value ([1]; 10 mg/kg iv, 29 day) was 1.32 ± 0.23 mL. For the same compound, the “overall preventive effect on Collagen Type II induced arthritis” value ([1]; rats, 10, 5, 2.5 mg/kg iv) was “able to prevent Collagen Type II induced arthritis”, the swell value ([2]; 2.5 mg/kg iv, 0 day) was 1.06 ± 0.09 mL and the inhibition rate ([2]; 2.5 mg/kg iv, 19 day) was <14.36> %. For the same compound, the swell rate ([2]; 2.5 mg/kg iv, 19 day) was “(84.26 ± 14.31) %”, the swell value ([2]; 2.5 mg/kg iv, 19 day) was 1.96 ± 0.16 mL and the inhibition rate ([2]; 2.5 mg/kg iv, 21 day) was <15.81> %. For the same compound, the swell rate ([2]; 2.5 mg/kg iv, 21 day) was “(89.42 ± 18.47) %”, the swell value ([2]; 2.5 mg/kg iv, 21 day) was 2.00 ± 0.07 mL and the inhibition rate ([2]; 2.5 mg/kg iv, 23 day) was <24.02> %. The swell rate ([2]; 2.5 mg/kg iv, 23 day) was “(80.92 ± 16.84) %”, the swell value ([2]; 2.5 mg/kg iv, 23 day) was 1.91 ± 0.08 mL and the inhibition rate ([2]; 2.5 mg/kg iv, 26 day) was <27.71> %. For the same compound, the swell rate ([2]; 2.5 mg/kg iv, 26 day) was “(81.13 ± 10.03) %”, the swell value ([2]; 2.5 mg/kg iv, 26 day) was 1.92 ± 0.08 mL and the inhibition rate ([2]; 2.5 mg/kg iv, 30 day) was <19.36> %. For the same compound, the swell rate ([2]; 2.5 mg/kg iv, 30 day) was “(84.80 ± 19.66) %”, the swell value ([2]; 2.5 mg/kg iv, 30 day) was 1.96 ± 0.16 mL and the swell value ([2]; 5 mg/kg iv, 0 day) was 1.10 ± 0.09 mL. For the same compound, the inhibition rate ([2]; 5 mg/kg iv, 19 day) was <17.31> %, the swell rate ([2]; 5 mg/kg iv, 19 day) was “(81.36 ± 13.10) %” and the swell value ([2]; 5 mg/kg iv, 19 day) was 2.00 ± 0.12 mL. The inhibition rate ([2]; 5 mg/kg iv, 21 day) was <20.85> %, the swell rate ([2]; 5 mg/kg iv, 21 day) was “(84.07 ± 18.91) %” and the swell value ([2]; 5 mg/kg iv, 21 day) was 2.03 ± 0.20 mL. For the same compound, the inhibition rate ([2]; 5 mg/kg iv, 23 day) was <23.19> %, the swell rate ([2]; 5 mg/kg iv, 23 day) was “(81.81 ± 14.58) %” and the swell value ([2]; 5 mg/kg iv, 23 day) was 2.01 ± 0.23 mL. The inhibition rate ([2]; 5 mg/kg iv, 26 day) was <27.40> %, the swell rate ([2]; 5 mg/kg iv, 26 day) was “(81.48 ± 11.30) %” and the swell value ([2]; 5 mg/kg iv, 26 day) was 2.00 ± 0.19 mL. For the same compound, the inhibition rate ([2]; 5 mg/kg iv, 30 day) was <20.33> %, the swell rate ([2]; 5 mg/kg iv, 30 day) was “(83.77 ± 17.65) %” and the swell value ([2]; 5 mg/kg iv, 30 day) was 2.03 ± 0.25 mL. For the same compound, the swell value ([2]; 10 mg/kg iv, 0 day) was 1.05 ± 0.09 mL, the inhibition rate ([2]; 10 mg/kg iv, 19 day) was <9.69> % and the swell rate ([2]; 10 mg/kg iv, 19 day) was “(88.85 ± 23.27) %”. The swell value ([2]; 10 mg/kg iv, 19 day) was 1.97 ± 0.24 mL, the inhibition rate ([2]; 10 mg/kg iv, 21 day) was <31.57> % and the swell rate ([2]; 10 mg/kg iv, 21 day) was “(72.69 ± 29.97) %”. The swell value ([2]; 10 mg/kg iv, 21 day) was 1.81 ± 0.33 mL, the inhibition rate ([2]; 10 mg/kg iv, 23 day) was <31.92> % and the swell rate ([2]; 10 mg/kg iv, 23 day) was “(72.50 ± 22.18) %”. The swell value ([2]; 10 mg/kg iv, 23 day) was 1.80 ± 0.21 mL, the inhibition rate ([2]; 10 mg/kg iv, 26 day) was <36.15> % and the swell rate ([2]; 10 mg/kg iv, 26 day) was “(71.66 ± 24.46) %”. For the same compound, the swell value ([2]; 10 mg/kg iv, 26 day) was 1.79 ± 0.24 mL, the inhibition rate ([2]; 10 mg/kg iv, 30 day) was <32.32> % and the swell rate ([2]; 10 mg/kg iv, 30 day) was “(71.17 ± 17.97) %”. The swell value ([2]; 10 mg/kg iv, 30 day) was 1.80 ± 0.26 mL and the “overall treatment effect on Adjuvant Arthritis” value ([2]; rats, 10, 5, 2.5 mg/kg iv for 8 days from day 20) was “able to cure Adjuvant Arthritis in rats”.
